Structures can show the parent of a compound that is named as a salt.
Legend:
juvenile dentate gyrus = assay: Fluoxetine effect on neuronal precursor classes in the juvenile dentate gyrus of nestin-CFPnuc mice; format: in vivo, mouse
Method: (§1) Immunohistochemistry. Tissues were fixed by transcardial perfusion with 30 ml of 4% (w/v) paraformaldehyde in PBS, pH 7.4. The brains were removed, cut longitudinally into two hemispheres and postfixed for 3 hrs at room temperature, then transferred to PBS and kept at 4° C. Serial sagittal sections, 50-μm thick, were cut with a Vibratome 1500 (Vibratome, St. Louis, Mo.). Immunostaining was carried following the standard procedure. The sections were incubated with primary antibodies to the target protein (see the list below) at 4° C. in PBS containing 0.2% Triton-100X and 3% BSA. After thorough washing with PBS, appropriate secondary antibodies (see the list below) were incubated in the same solution for 1 hr at room temperature. After washing with PBS, the sections were mounted on gelatine coated slides with DakoCytomation Fluorescent Mounting Medium (DakoCytomation, Carpinteria, Calif.). For the analysis of 5-bromo-2-deoxyuridine (BrdU) incorporation, sections were treated with 2M HCl for 30 min at 55° C., washed with PBS, treated with 1 mM sodium tetraborate for 10 min at room temperature, and finally washed with PBS. The following antibodies were used: chicken anti-GFP (Aves Laboratories, Tigard, Oreg.) 1:500; guinea pig anti-GFAP (Advanced Immunochemicals, Long Beach, Calif.) 1:500; mouse anti-nestin (Chemicon International, Temecula, Calif.) 1:100; mouse anti-NeuN (Chemicon) 1:800; rabbit anti Dcx (generous gift from Dr. C. A. Walsh, Harvard Medical School) 1:2500; rabbit anti-Prox I (generous gift from Dr. S. J. Pleasure, UCSF) 1:2000; rat anti-BrdU (Serotec, Raleigh, N.C.) 1:400; mouse anti-PSA-NCAM (Chemicon) 1:400; AlexaFluor 488 goat anti-chicken (Molecular Probes, Willow Creek Road, Eugene, Oreg.) 1:500; AlexaFluor 594 goat anti-mouse (Molecular Probes) 1:500; AlexaFluor 568 goat anti-rat (Molecular Probes) 1:500; Cy5 goat anti-guinea pig (Jackson Immunoresearch, West Grove, Pa.) 1:500; Cy5 goat anti-rabbit (Jackson Immunoresearch) 1:500; Texas Red donkey anti-chicken (Jackson Immunoresearch) 1:500.
(§2) Quantification. Quantitative analysis of cell populations was performed by means of design-based (assumption free, unbiased) stereology. Slices were collected using systematic-random sampling. One brain hemisphere was randomly selected per animal. The hemisphere was sliced sagittaly, in a lateral-to-medial direction, from the beginning until the end of the lateral ventricle, thus including the whole DG. The 50 μm slices, obtained with a 1500 Vibratome (Vibratome, St. Louis, Mo.), were collected in 6 parallel sets (5 in the case of the juvenile mice), each set consisting of 12 slices, each slice 300 μm apart from the next.
In the young animals, all the BrdU cells were counted in each slice, excluding those in the uppermost focal plane. The number of nestin-CFPnuc stained cells, the QNPs, and the ANPs, was estimated using the two-stage approach. At least 5 optical dissectors (20×20×20 μm) placed in a systematic-random manner, were applied to each slice. Then the volume of the space reference (of the SGZ) was estimated using the Cavalieri-point method.
(§3) All the imaging and quantification procedures were performed using a Zeiss LSM 510 confocal microscope and its software. Statistical analysis and graphs of the numeric data were obtained using SigmaPlot software (SYSTAT, Port Richmond, Calif.) and JMP (SAS Institute Inc., Cary, N.C.).
(§4) On the last day a single injection of BrdU, 150 mg/kg was also administered. […] On the last day they were also given a single injection of BrdU, 150 mg/kg. In both sets of experiments, animals were sacrificed either 24 h or 30 days after the end of the treatment and the BrdU injection.
The action of fluoxetine on stem/progenitor cells was investigated for similarity in both the juvenile and adult brain. […] In the DG of treated juvenile mice, precursor cells can be divided into the same categories as the cells in the adult brain (note that the animals are 20 or 49 days old at the time of analysis). […]

[1] = test system: dentate gyrus (DG) of the adult brain; details: cited from earlier work
[2] = exposure of newborn (p4) mice; cited from earlier work
adult dentate gyrus = assay: Fluoxetine effect on neuronal precursor classes in the adult dentate gyrus of nestin-CFPnuc mice (confocal stereology, BrdU labeling); format: in vivo, mouse
Method: as §1, §2
(§5) For counts in the DG, all the cells of each type described were counted in every slice, excluding those in the uppermost focal plane. The volume of the reference space (of the granule cell layer (GCL)+the subgranular zone (SGZ)) was calculated by the Cavalieri-point method. In the subventricular zone (SVZ), for BrdU counts, all the BrdU stained cells were counted in each slice, excluding those in the uppermost focal plane. For nestin-CFP cells, the two-stage approach was used. At least 10 optical disectors (20×20×20 μm), placed following a systematic-random manner, were applied on each slice. Then the volume of the space reference (of the SVZ) was estimated using the Cavalieri-point method.
as §3, §4

[3] = test system: subventricular zone (SVZ); assay: Fluoxetine effect on neurogenesis in the subventricular zone of adult nestin-CFPnuc mice; format: in vivo, mouse; details: 15 days treatment
Method: as §1, §2, §5
All the imaging and quantification procedures were performed using a Zeiss LSM 510 confocal microscope and its software. […]

[4] = 15 days from p5, 1 day, vs vehicle
[5] = 30 days after end of administration, n=5
[6] = adult, 15 days treatment, 24 h, mean±SEM, n=8
[7] = adult, 15 days treatment, 24 h, n=6
[8] = adult, 15 days treatment, 24 h, vs vehicle
[9] = adult, 15 days treatment, 1 day after BrdU, n=8
[10] = adult, 15 days treatment, sacrificed 30 days later, n=6

CNCCC(Oc1ccc(C(F)(F)F)cc1)c1ccccc1 (stereo not shown) [fluoxetine, fluoxetine hydrochloride]
number of ANPs (juvenile dentate gyrus; 15 days from p5, 1 day): 16972±1872
number of QNPs (juvenile dentate gyrus; 15 days from p5, 1 day): 42048±4328
number of dividing (BrdU-labeled) ANP cells (juvenile dentate gyrus; 15 days from p5, 1 day): 1698±184
number of dividing (BrdU-labeled) QNP cells (juvenile dentate gyrus; 15 days from p5, 1 day): 2021±434
number of nestin-CFPnuc cells (juvenile dentate gyrus; 15 days from p5, 1 day): 61256±4970
number of BrdU-positive cells in the DG (juvenile dentate gyrus; 15 days from p5, 1 day after BrdU): 9796±834
change in number of dividing (BrdU-labeled) QNP cells (not statistically significant) (juvenile dentate gyrus; [4]): 28.7%
fraction of BrdU+NeuN+ cells among total BrdU-positive cells (FIG. 7K BrdU-labeled QNP, FIG. 7L BrdU-labeled ANP) (juvenile dentate gyrus; [4]): did not change
increase in number of ANPs (juvenile dentate gyrus; [4]): 52.6%
increase in number of dividing (BrdU-labeled) ANP cells (juvenile dentate gyrus; [4]): 67.7%
increase in number of nestin-CFPnuc cells (juvenile dentate gyrus; [4]): 35.6%
change in number of QNPs (did not reach statistical significance) (juvenile dentate gyrus; 15 days from p5, 1 day, vs vehicle, p=0.134): 23.5%
increase in number of BrdU-positive cells in the DG (juvenile dentate gyrus; 15 days from p5, 30 days after end of administration, vs vehicle): 42.2%
increase in number of BrdU-positive cells in the DG (juvenile dentate gyrus; 15 days treatment from p5, 1 day after BrdU, vs vehicle): 36.3%
fraction of BrdU- and NeuN-double-positive cells among total BrdU-positive cells (juvenile dentate gyrus; 30 days after end of administration): 93.6%
number of BrdU- and NeuN-double-positive cells (juvenile dentate gyrus; [5]): 1892±119
number of BrdU-positive cells in the DG (juvenile dentate gyrus; [5]): 2026±153
increase in number of BrdU- and NeuN-double-positive cells (juvenile dentate gyrus; 30 days after end of administration, vs vehicle): 42.3%
generation of new neurons in the dentate gyrus [1]: increases generation of new neurons
anxiety when animals become adults [2]: elevated anxiety
increase in number of BrdU-labeled cells in the DG (adult dentate gyrus; 7-month old mice, 10 mg/kg once per day for 15 days, 24 h after BrdU, vs vehicle): 40.9%
number of BrdU-labeled cells in the DG (adult dentate gyrus; adult, 10 mg/kg/day 15 days, 24 h after BrdU, mean±SEM, n=8): 758±58
change in Dcx-positive cells (compared with PSA-NCAM-positive cells) (adult dentate gyrus; adult, 15 days treatment, 24 h): Identical changes
number of ANP cells (adult dentate gyrus; [6]): 5745±506
number of QNP cells (adult dentate gyrus; [6]): 4675±518
number of BrdU-labeled ANPs (adult dentate gyrus; [7]): 410±33
number of BrdU-labeled QNPs (adult dentate gyrus; [7]): 90±16
number of PSA-NCAM-positive cells (NB1, NB2 and IN) (adult dentate gyrus; adult, 15 days treatment, 24 h, n=8): 11298±719
change in number of BrdU-labeled QNPs (adult dentate gyrus; [8]): not affected
change in number of QNP cells (adult dentate gyrus; [8]): no change
fraction of dividing cells among ANPs (adult dentate gyrus; [8]): did not change
fraction of dividing cells among QNPs (adult dentate gyrus; [8]): did not change
increase in number of ANP cells (adult dentate gyrus; [8]): 49.6%
increase in number of BrdU-labeled ANPs (adult dentate gyrus; [8]): 46.4%
increase in number of CFPnuc-positive cells (QNPs and ANPs together) (adult dentate gyrus; [8]): 24.7%
increase in number of PSA-NCAM-positive cells (NB1, NB2 and IN) (adult dentate gyrus; [8]): 26.5±7.2%
number of IN cells (adult dentate gyrus; [9]): 858±88
number of NB1 cells (adult dentate gyrus; [9]): 6988±538
number of NB2 cells (adult dentate gyrus; [9]): 3452±413
increase in number of NB1 cells (adult dentate gyrus; adult, 15 days treatment, 1 day after BrdU, vs vehicle): 42.1%
fraction of BrdU+NeuN+ cells among total BrdU-positive cells (adult dentate gyrus; adult, 15 days treatment, sacrificed 30 days later): 92.8±1.6%
number of BrdU-labeled NeuN-positive neurons (adult dentate gyrus; [10]): 316±29
number of BrdU-labeled cells in the DG (adult dentate gyrus; [10]): 342±24
increase in number of BrdU-labeled cells in the DG (adult dentate gyrus; adult, 15 days treatment, sacrificed 30 days later, vs vehicle): 46.2%
number of BrdU-labeled cells in the SVZ [3]: 9550±769
number of nestin-CFPnuc cells in the SVZ [3]: 473±55 ×10^3
volume of the SVZ ([3]; in mm³): 0.603±0.051
change in number of BrdU-labeled cells in the SVZ ([3]; vs vehicle): No changes
change in number of nestin-CFPnuc cells, their density and volume of the SVZ ([3]; vs vehicle): no significant changes

— patent US20070250942A1, “Non-human transgenic mammals useful for identifying and assessing neural stem/progenitor cells” (Cold Spring Harbor Laboratory, priority 2006, published 2007)
